Patent US9028856B2, “Synergistic pesticide compositions” (priority 2008, dated 2015)

Tests used:
[1] = tested on: Culex quinquefasciatus mosquito; experiment: USDA Petri Dish Method, 3 min exposure to treated glazed tile (twenty 4-6 day old females); format: in vivo; settings: Table 50, fipronil/adjuvant in acetone, glazed tile, 3 min exposure
Protocol: MATERIALS AND METHODS: Solutions of resmethrin at 1 and 0.5% AI were prepared with and without adjuvant in acetone. […] USDA Petri Dish Method was used as initial screening protocol. Twenty, 4-6 day old female Culex quinquefasciatus mosquitoes were exposed to each treatment for 3 minutes and then moved to a clean untreated white paper index card. Treatments were replicated a minimum of three times. Mosquito knockdown was evaluated at 3 minute intervals for the first 15 minutes and then at 5 minute intervals for the remainder of an hour. A small cotton ball soaked in sucrose solution was added on the screen top of the petri-dish as a drinking source after the 2 hour evaluation. Mortality was evaluated at 24 hours after exposure.
(§1) Treatments were allowed to dry overnight. USDA Petri Dish Method was used as initial screening protocol. Twenty, 4-6 day old female Culex mosquitoes were exposed to each treatment for 3 minutes and then moved to a clean untreated white paper index card. Treatments were replicated a minimum of three times. Mosquito knockdown was evaluated at various intervals through 3 hours after exposure. A small cotton ball soaked in sucrose solution was added on the screen top of the petri-dish as a drinking source. Mortality was evaluated at 24 hours after exposure.
as §1, with “female Culex quinquefasciatus mosquitoes were” for “female Culex mosquitoes were”, “intervals through 2 hours after” for “intervals through 3 hours after”, “solution was then added on” for “solution was added on”
as §1, with “Culex quinquefasciatus” for “Culex”, “hourly intervals.” for “intervals through 3 hours after exposure.”, “source after 2 hours.” for “source.”

[2] = tested on: housefly, Musca domestica; experiment: Housefly continuous exposure on treated glazed tile (paper cup arena); format: in vivo
Source text: Treatments were allowed to dry overnight. The housefly testing arena consisted of a 16 oz. paper cup where the bottom of the cup was removed and replaced with a piece of standard window screen. Ten adult houseflies (mixed ratio) were placed in each cup and covered with a 4″×5″ index card to prevent escape. Houseflies were continuously exposed to the treatment by inverting the testing arena and sliding the cup from the index card to the treated tile surface. Treatments were replicated a minimum of three times.

[3] = octanol-water partition coefficient (Log K ow), Table 1; cited from earlier work
Aedes aegypti mosquito = experiment: USDA Petri Dish Method, 3 min exposure to dipped fiberglass window screen; format: in vivo
Protocol: MATERIALS AND METHODS: Aqueous solutions of 1% deltamethrin with and without an adjuvant composition, which is sold under the tradename Suspend® SC. […] Pre-cut fiberglass screen (5″×5″, or 161.3 cm^2) were dipped in each treatment solution and excessive solution was allowed to drain completely (see FIG. 23 a). Weight of the solution coated on the screen was then determined. The treated screen was then allowed to air-dry overnight. USDA Petri Dish Method was used as initial screening protocol (see FIG. 23 b). Twenty, 4-6 day old female Aedes aegypti were exposed to treated window screen for 3 minutes and then moved onto a clean untreated white paper index card. Treatments were replicated a minimum of three times. Mosquito knockdown was evaluated at 3 minute intervals for the first 15 minutes and then at 5 minute intervals for the remainder of an hour. A small cotton ball with sucrose solution was added on the screen top of the Petri dish as a drinking source. Mortality was evaluated at 24 hours after exposure.
MATERIALS AND METHODS: Several rates of permethrin without adjuvant were prepared using product sold under the tradename Permanone® 40 to determine an effective rate against Aedes aegypti mosquitoes. After determining an effective rate range, aqueous solutions of permethrin at 1.25, 1.0 and 0.05% AI were prepared with and without adjuvant. […] Pre-cut fiberglass screens (5″×5″ or 161.3 cm^2) were dipped in each treatment solution allowing excessive solution to drain completely. Weight of the solution coated on the screen was then determined. The treated screen was then allowed to air-dry overnight. USDA Petri Dish Method was used as initial screening protocol (see photo, right). Twenty, 4-6 day old female Aedes aegypti were exposed to treated window screen for 3 minutes and then moved to a clean untreated white paper index card. Treatments were replicated a minimum of three times. Mosquito knockdown was evaluated at 3 minute intervals for the first 15 minutes and then at 5 minute intervals for the remainder of an hour. A small cotton ball with sucrose solution was added on the screen top of the petri-dish as a drinking source. Mortality was evaluated at 24 hours after exposure.

[4] = tested on: ants (persistent ant trails); experiment: Ant control field trial (ant trail counts after barrier spray); format: in vivo
Source text: The purpose of this example was to consider whether combinations of imidacloprid and adjuvant, believed acting as free radical stabilizers, is effective at controlling ant populations. The general methodology used in this analysis first involved locating a site with persistent ant trails; e.g., trails over surfaces of buildings, at structural guidelines (expansion joints, utility lines, and the like), or points where ants emerge from beneath or behind a structural element. A point of observation was fixed along the trail or point of emergence as the individual plot(s) for observations of the effects of treatment on ant activity. The near environment (structural substrate, mulch beds, ground, and the like) was sprayed to form a continuous barrier that intercepts the trailing ants in a barrier ca. 2 ft up and 2 ft out from foundation wall, and extending 2 to 3 feet on either side of the ant trail. After treatment, the observers returned to observe ant activity and count ant traffic at intervals after treatment. The evaluations were continued until the control failed, or as long as was practical. All formulations were diluted in water before treatment. Application rates, in terms of mg AI per sq. m., were as indicated in the tables. deltamethrin served as a positive control. All treatments were replicated in four plots.

[5] = tested on: German cockroach (Blattella germanica); experiment: Contact efficacy against cockroaches on filter papers in glass dishes; format: in vivo
Source text: The objective of this study was to evaluate differences between deltamethrin and imidacloprid with and without adjuvant against cockroaches. The method for determining contact efficacy against cockroaches was the same as that in Example 107.

[6] = 0.00032% Deltamethrin in acetone
[7] = 0.0016% Deltamethrin in acetone

With `N#Cc1nn(-c2c(Cl)cc(C(F)(F)F)cc2Cl)c(N)c1[S+]([O-])C(F)(F)F` (stereo not drawn) [Fipronil (.01%)] the “Average % Knockdown & Mortality after 30 min” value [1] was 0%, the “Average % Knockdown & Mortality after 60 min” value [1] was 0% and the “Average % Knockdown & Mortality after 2 hr” value [1] was 0%. The “Average % Knockdown & Mortality after 3 hr” value [1] was 0% and the “Average % Knockdown & Mortality after 24 hr” value [1] was 48%.
For `CC[S+]([O-])c1c(C#N)nn(-c2c(Cl)cc(C(F)(F)F)cc2Cl)c1N` (stereo not drawn) [ethiprole], the “mortality after about 6 hours” value ([2]; ethiprole 0.01% with or without adjuvant (FIG. 52)) is given as “about 6%” and the “Log P” value [3] is given as 2.90.
With `CC1(C)[C@H](C(=O)O[C@H](C#N)c2cccc(Oc3ccccc3)c2)[C@@H]1C=C(Br)Br` [deltamethrin (1%)] the “Average % Knockdown & Mortality after 3 min” value (Aedes aegypti mosquito; 3 min, Table 26, aqueous deltamethrin/adjuvant, dipped screen, 3 min exposure) was 0%, the “Average % Knockdown & Mortality after 9 min” value (Aedes aegypti mosquito; 9 min, Table 26, aqueous deltamethrin/adjuvant, dipped screen, 3 min exposure) was 0% and the “Average % Knockdown & Mortality after 15 min” value (Aedes aegypti mosquito; 15 min, Table 26, aqueous deltamethrin/adjuvant, dipped screen, 3 min exposure) was 0%. For the same compound, the “Average % Knockdown & Mortality after 30 min” value (Aedes aegypti mosquito; 30 min, Table 26, aqueous deltamethrin/adjuvant, dipped screen, 3 min exposure) was 27%, the “Average % Knockdown & Mortality after 60 min” value (Aedes aegypti mosquito; 60 min, Table 26, aqueous deltamethrin/adjuvant, dipped screen, 3 min exposure) was 84% and the “Average % Knockdown & Mortality after 24 hr” value (Aedes aegypti mosquito; 24 hr, Table 26, aqueous deltamethrin/adjuvant, dipped screen, 3 min exposure) was 100%.
With `CC1(C)[C@H](C(=O)O[C@H](C#N)c2cccc(Oc3ccccc3)c2)[C@@H]1C=C(Br)Br` [deltamethrin] the “mortality at 24 hours after exposure” value (Aedes aegypti mosquito; 1% deltamethrin alone, treated screen) was 100%, the “efficacy of the substance alone (summary in words)” value (Aedes aegypti mosquito; Aedes aegypti, treated window screen) was “good knockdown” and the “reduction in ant activity, cross-trial average (relative to pretreatment counts)” value [4] was 57.9%. The “% Mortality after 15′” value [5, 6] was 0%, the “% Mortality after 30′” value [5, 6] was 0% and the “% Mortality after 1 h” value [5, 6] was 0%. For the same compound, the “% Mortality after 2 h” value [5, 6] was 20%, the “% Mortality after 4 h” value [5, 6] was 20% and the “% Mortality after 6 h” value [5, 6] was 20%. The “% Mortality after 1 d” value [5, 6] was 100%, the “% Mortality after 15′” value [5, 7] was 40% and the “% Mortality after 30′” value [5, 7] was 60%. The “% Mortality after 1 h” value [5, 7] was 80%, the “% Mortality after 2 h” value [5, 7] was 100% and the “% Mortality after 4 h” value [5, 7] was 100%. The “% Mortality after 6 h” value [5, 7] was 100% and the “% Mortality after 1 d” value [5, 7] was 100%.
With `CC[S+]([O-])c1c(C#N)nn(-c2c(Cl)cc(C(F)(F)F)cc2Cl)c1N` (stereo not drawn) [Ethiprole (1%)] the “Average % Knockdown & Mortality after 3 hr” value ([2]; Table 58, housefly, glazed tile, continuous exposure, 3 hr) was 0%, the “Average % Knockdown & Mortality after 5 hr” value ([2]; Table 58, housefly, glazed tile, continuous exposure, 5 hr) was 0% and the “Average % Knockdown & Mortality after 7 hr” value ([2]; Table 58, housefly, glazed tile, continuous exposure, 7 hr) was 3%. The “Average % Knockdown & Mortality after 24 hr” value ([2]; Table 58, housefly, glazed tile, continuous exposure, 24 hr) was 97% and the “Average % Knockdown & Mortality after 1 hr” value ([2]; Table 58, housefly, glazed tile, continuous exposure, adjuvant = Compound A 1% + Compound B 0.5%, 1 hr) was 0%.
In the case of `CNC(=O)Oc1cccc2c1OC(C)(C)O2` [bendiocarb], the “Log P” value [3] is given as 1.7.
For `O=[N+]([O-])NC1=NCCN1Cc1ccc(Cl)nc1` [imidacloprid], the “reduction in ant activity, cross-trial average (relative to pretreatment counts)” value [4] was 34.1%, the “% Mortality after 15′” value ([5]; 0.04% Imidacloprid in acetone) was 0% and the “% Mortality after 30′” value ([5]; 0.04% Imidacloprid in acetone) was 0%. The “% Mortality after 1 h” value ([5]; 0.04% Imidacloprid in acetone) was 0%, the “% Mortality after 2 h” value ([5]; 0.04% Imidacloprid in acetone) was 0% and the “% Mortality after 4 h” value ([5]; 0.04% Imidacloprid in acetone) was 0%. The “% Mortality after 6 h” value ([5]; 0.04% Imidacloprid in acetone) was 0%, the “% Mortality after 1 d” value ([5]; 0.04% Imidacloprid in acetone) was 0% and the “% Mortality after 15′” value ([5]; 0.2% Imidacloprid in acetone) was 0%. The “% Mortality after 30′” value ([5]; 0.2% Imidacloprid in acetone) was 0%, the “% Mortality after 1 h” value ([5]; 0.2% Imidacloprid in acetone) was 0% and the “% Mortality after 2 h” value ([5]; 0.2% Imidacloprid in acetone) was 0%. The “% Mortality after 4 h” value ([5]; 0.2% Imidacloprid in acetone) was 0%, the “% Mortality after 6 h” value ([5]; 0.2% Imidacloprid in acetone) was 0% and the “% Mortality after 1 d” value ([5]; 0.2% Imidacloprid in acetone) was 0%. For the same compound, the “efficacy with adjuvant compared with insecticide alone (summary in words)” value ([5]; filter papers in glass dishes) was “no mortality was observed, with or without adjuvant”.
For `N#Cc1nn(-c2c(Cl)cc(C(F)(F)F)cc2Cl)c(N)c1[S+]([O-])C(F)(F)F` (stereo not drawn) [Fipronil (.001%)], the “Average % Knockdown & Mortality after 30 min” value [1] was 0%, the “Average % Knockdown & Mortality after 60 min” value [1] was 0% and the “Average % Knockdown & Mortality after 2 hr” value [1] was 0%. For the same compound, the “Average % Knockdown & Mortality after 3 hr” value [1] was 0% and the “Average % Knockdown & Mortality after 24 hr” value [1] was 2%.
